Numbers after ± are expanded uncertainties.

For series [1] the following is noted: 101 kPa, Liquid.
Series [2] is described as follows: xn = mol fraction of the nth substance listed. Conditions: 101 kPa, Liquid, x1 = 1.

The mass density is the mass of a sample divided by its volume. Consider `CCCO` [propan-1-ol], for which the mass density in series [1] (288.15 K) is listed as 807.69 ± 0.46 kg/m3; in series [1] (293.15 K), 803.703 ± 0.46 kg/m3; in series [1] (298.15 K) it was 799.692 ± 0.47 kg/m3; in series [1] (303.15 K), 795.65 ± 0.47 kg/m3; in series [1] (308.15 K), 791.576 ± 0.48 kg/m3; in series [1] (313.15 K), 787.466 ± 0.49 kg/m3.

Take `Clc1ccccc1` [chlorobenzene]: the mass density came to 1111.81 ± 0.3 kg/m3 in series [1] (288.15 K); 1106.43 ± 0.29 kg/m3 in series [1] (293.15 K); 1101.04 ± 0.28 kg/m3 in series [1] (298.15 K); 1095.64 ± 0.28 kg/m3 in series [1] (303.15 K); 1090.23 ± 0.27 kg/m3 in series [1] (308.15 K); 1084.82 ± 0.26 kg/m3 in series [1] (313.15 K). Further, the mass density in series [1] (318.15 K) was 1079.42 ± 0.25 kg/m3; in series [1] (323.15 K) it was 1073.97 ± 0.24 kg/m3.

Turning to `CCCO` [propan-1-ol] + Clc1ccccc1, the mass density in series [2] (288.15 K) is reported as 807.69 ± 0.46 kg/m3; in series [2] (293.15 K) it was 803.703 ± 0.46 kg/m3; in series [2] (298.15 K), 799.692 ± 0.47 kg/m3; in series [2] (303.15 K), 795.65 ± 0.47 kg/m3; in series [2] (308.15 K), 791.576 ± 0.48 kg/m3; in series [2] (313.15 K), 787.466 ± 0.49 kg/m3.

In the case of `CC(C)(C)O` [2-methylpropan-2-ol], the mass density worked out at 775.412 ± 0.49 kg/m3 in series [1] (303.15 K); 770.193 ± 0.49 kg/m3 in series [1] (308.15 K); 764.884 ± 0.5 kg/m3 in series [1] (313.15 K); 759.488 ± 0.51 kg/m3 in series [1] (318.15 K); 754.015 ± 0.52 kg/m3 in series [1] (323.15 K).

Turning to `CCCCCO` [pentan-1-ol] + Clc1ccccc1, the mass density is reported as 818.282 ± 0.54 kg/m3 in series [2] (288.15 K); 814.635 ± 0.55 kg/m3 in series [2] (293.15 K); 810.968 ± 0.55 kg/m3 in series [2] (298.15 K); 807.278 ± 0.55 kg/m3 in series [2] (303.15 K); 803.558 ± 0.56 kg/m3 in series [2] (308.15 K); 799.817 ± 0.56 kg/m3 in series [2] (313.15 K).

For the molecule `CCCCO` [butan-1-ol] + Clc1ccccc1, the mass density in series [2] (288.15 K) was 813.373 ± 0.45 kg/m3; in series [2] (293.15 K), 809.573 ± 0.45 kg/m3; in series [2] (298.15 K) it was 805.762 ± 0.46 kg/m3; in series [2] (303.15 K) it was 801.923 ± 0.47 kg/m3; in series [2] (308.15 K), 798.053 ± 0.47 kg/m3; in series [2] (313.15 K), 794.147 ± 0.48 kg/m3.

In the case of `CCC(C)O` (stereo unspecified) [butan-2-ol], the mass density in series [1] (288.15 K) worked out at 810.689 ± 0.55 kg/m3; in series [1] (293.15 K), 806.646 ± 0.56 kg/m3; in series [1] (298.15 K) it was 802.528 ± 0.56 kg/m3; in series [1] (303.15 K) it was 798.326 ± 0.56 kg/m3; in series [1] (308.15 K), 794.03 ± 0.57 kg/m3; in series [1] (313.15 K), 789.632 ± 0.58 kg/m3.

As to `CCCCCO` [pentan-1-ol], the mass density was 818.282 ± 0.54 kg/m3 in series [1] (288.15 K); 814.635 ± 0.55 kg/m3 in series [1] (293.15 K); 810.968 ± 0.55 kg/m3 in series [1] (298.15 K); 807.278 ± 0.55 kg/m3 in series [1] (303.15 K); 803.558 ± 0.56 kg/m3 in series [1] (308.15 K); 799.817 ± 0.56 kg/m3 in series [1] (313.15 K).

Take `CCC(C)O` (stereo unspecified) [butan-2-ol] + Clc1ccccc1: the mass density in series [2] (288.15 K) is 810.689 ± 0.55 kg/m3; in series [2] (293.15 K), 806.646 ± 0.56 kg/m3; in series [2] (298.15 K) it was 802.528 ± 0.56 kg/m3; in series [2] (303.15 K), 798.326 ± 0.56 kg/m3; in series [2] (308.15 K) it was 794.03 ± 0.57 kg/m3; in series [2] (313.15 K), 789.632 ± 0.58 kg/m3.

For the molecule `CC(C)(C)O` [2-methylpropan-2-ol] + Clc1ccccc1, the mass density in series [2] (303.15 K) was determined as 775.412 ± 0.49 kg/m3; in series [2] (308.15 K), 770.193 ± 0.49 kg/m3; in series [2] (313.15 K), 764.884 ± 0.5 kg/m3; in series [2] (318.15 K), 759.488 ± 0.51 kg/m3; in series [2] (323.15 K) it was 754.015 ± 0.52 kg/m3.

In the case of `CCCCO` [butan-1-ol], the mass density was found to be 813.373 ± 0.45 kg/m3 in series [1] (288.15 K); 809.573 ± 0.45 kg/m3 in series [1] (293.15 K); 805.762 ± 0.46 kg/m3 in series [1] (298.15 K); 801.923 ± 0.47 kg/m3 in series [1] (303.15 K); 798.053 ± 0.47 kg/m3 in series [1] (308.15 K); 794.147 ± 0.48 kg/m3 in series [1] (313.15 K).

The values are drawn from the NIST ThermoML archive (doi:10.1016/j.fluid.2007.09.028).
